{"source": "patent US11186594B2", "about": "“Podophyllotoxin derivatives and their use” (California Pacific Medical Center, priority 2015, dated 2021)", "key": {"[1]": {"assay": "Toxicity studies (MTD) in Cynomolgus monkeys", "format": "in vivo"}, "[2]": {"test_system": "HCT116 human colon cancer xenograft", "assay": "Subcutaneous HCT116 human colon cancer xenograft model", "format": "in vivo, Mus Musculus (BALB/c nude)", "procedure": "Each mouse was inoculated subcutaneously with 5×10^6 HCT116 tumor cells in 0.1 ml PBS for tumor development. Treatments were started when the tumor volume reached 100 mm^3. […] Body weight and tumor volume were measured twice a week."}, "[3]": {"assay": "Rat MTD study", "format": "in vivo, Sprague-Dawley rats", "procedure": "In the rat MTD study, Sprague-Dawley rats were dosed with 801 HCl at a concentration of 6 mg/ml via intravenous infusion or slow intravenous injection. The MTD of 801 in normal rats was 120 mg/kg/day. In the 7-day repeating dose study, the rats were administered with […] via BID slow IV injection for 7 days."}, "[4]": {"test_system": "K562 human chronic myeloid leukemia xenograft", "assay": "Subcutaneous K562 human chronic myeloid leukemia xenograft model", "details": "300 mg/kg ip Days 8, 11, 14"}, "[5]": {"assay": "Toxicity study (MTD) in normal mice", "format": "in vivo, C3H female normal mice", "details": "single i.p. injection, mice checked daily for 40 days (MTD40)", "procedure": "In the toxicity studies, 2 C3H female normal mice were dosed with compounds N1-4 (N1, N2, N3, and N4) at low and moderate doses of 40 and 100 mg/kg. Since no severe and irreversible toxicity occurred at these doses, a new pair of animals was initiated at 120 mg/kg which was 1.2 times higher than 100 mg/kg. Sequential dosages (ie. 2 mice for each drug dose) were increased by a factor of 1.2-1.5 until irreversible toxicity was observed (animal became emaciated; animal underwent rapid weight loss (cachexia) (20%) within several (2-4) days)(euthanasia was required) occurred. Then another pair of animals was initiated at the highest nontoxic dosage, and successive dosages were increased by a factor of 1.15. […] Six mice were dosed at each dosage. If no irreversible toxicity occurred at the lower dosage and at least one with irreversible toxicity at the higher dose, then the lower dose was considered to be the MTD. HCL salts of N1-4 were formulated in a solution of ethanol:Cremophor EL:0.2M NaAc:saline (5:5:10:80) with a final pH of 5.0-5.5. N1-4 bases were formulated in a solution of ethanol: Cremophor EL:saline (5:5:90). All compounds were administered to C3H female normal mice by a single i.p. injection at a volume of 0.5 ml/20 g mouse. Drug toxicity was evaluated on mice checked daily for 40 days. The toxicity parameters reported were the MTD40. […] At the end of experiment, all mice were euthanized."}, "[6]": {"test_system": "COLO205 human colon cancer xenograft", "assay": "Subcutaneous COLO205 human colon cancer xenograft model", "format": "in vivo, Mus Musculus (BALB/c nude)", "details": "125 mg/kg i.p. q3d×3, day 29", "procedure": "Each mouse was inoculated subcutaneously with 5×10^6 COLO205 tumor cells in 0.1 ml PBS for tumor development. Treatments were started when the tumor volume reached 120 mm^3. […] Body weight and tumor volume were measured twice a week."}, "[7]": {"test_system": "H23 Human Non-small Cell Lung Cancer Cells", "assay": "Colony formation assay, H23", "format": "cell-based", "details": "50% inhibition of colony formation; 72 hours with drug; colonies counted after 15 days", "procedure": "(§1) Cancer cells were plated in 60 mm Petri dishes containing 2.7 ml of medium (modified McCoy's 5a medium containing 10% fetal bovine serum and 100 units/ml penicillin and 100 ug/ml streptomycin). The cells were incubated in a CO2 incubator at 37 degree C. for 5 hours for attachment to the bottom of Petri dishes. Drugs were made up fresh in medium at ten times the final concentration, and then 0.3 ml of this stock solution was added to the 2.7 ml of medium in the dish. The cells were then incubated with drugs for 72 hours at 37 degree C. At the end of incubation the drug-containing media were decanted, the dishes were rinsed with 4 ml of Hank's Balance Salt Solution (HBSS), 5 ml of fresh medium was added, and the dishes were returned to the incubator for colony formation. The cell colonies were counted using colony counter after incubation for 7 days (HCT116 cell line), 14 days (VM46 cell line) and 15 days (H23 cell line). Cell survival (%) was calculated from 3 repeated dishes for each drug concentration and the mean values of IC50 (the drug concentration producing 50% inhibition of colony formation) were determined for each tested compound."}, "[8]": {"test_system": "VM46 Human Colon Cancer Cells Overexpressing Multi-drug Resistant Gene 1", "assay": "Colony formation assay, VM46", "format": "cell-based", "details": "50% inhibition of colony formation; 72 hours with drug; colonies counted after 14 days", "procedure": "as §1"}, "[9]": {"test_system": "HCT116 Human Colon Cancer Cells", "assay": "Colony formation assay, HCT116", "format": "cell-based", "details": "50% inhibition of colony formation; 72 hours with drug; colonies counted after 7 days", "procedure": "as §1"}}, "data": [{"smiles": "CC[C@@]1(OC(=O)COc2ccc(C(=O)O[C@H]3c4cc5c(cc4[C@@H](c4cc(OC)c(OC)c(OC)c4)[C@H]4C(=O)OC[C@@H]43)OCO5)cc2)C(=O)OCc2c1cc1n(c2=O)Cc2cc3cc(OC(=O)N4CCC(N5CCCCC5)CC4)ccc3nc2-1.Cl", "note": "[Compound 801-HCl]", "values": [{"measurement": "MTD for repeating dosing", "setting": "[1]; 5-day repeat dose, intravenous infusion", "value": 30, "unit": "mg/kg/day"}, {"measurement": "MTD", "setting": "[1]; intravenous infusion twice daily with a 5-hour interval", "value": 60, "unit": "mg/kg/day"}, {"measurement": "TGI", "setting": "[2]; 125 mg/kg i.p. q3d×3, day 29", "value": 93, "unit": "%"}, {"measurement": "MTD", "setting": "[3]; 6 mg/ml via intravenous infusion or slow intravenous injection, normal rats", "value": 120, "unit": "mg/kg/day"}, {"measurement": "TGI (Day 25)", "setting": "[4]", "value": 98, "unit": "%"}, {"measurement": "Mean Tumor Volume", "setting": "[4]; Day 8 after tumor inoculation", "value": "159 ± 6", "unit": "mm^3"}, {"measurement": "Mean Tumor Volume", "setting": "[4]; Day 11", "value": "221 ± 27", "unit": "mm^3"}, {"measurement": "Mean Tumor Volume", "setting": "[4]; Day 14", "value": "164 ± 6", "unit": "mm^3"}, {"measurement": "Mean Tumor Volume", "setting": "[4]; Day 18", "value": "47 ± 7", "unit": "mm^3"}, {"measurement": "Mean Tumor Volume", "setting": "[4]; Day 21", "value": "39 ± 6", "unit": "mm^3"}, {"measurement": "Mean Tumor Volume", "setting": "[4]; Day 25", "value": "74 ± 12", "unit": "mm^3"}, {"measurement": "Mean Tumor Volume", "setting": "[4]; Day 25, listed as 801-HCI", "value": "74 ± 2", "unit": "mm^3"}, {"measurement": "Mean Tumor Volume", "setting": "[4]; Day 28", "value": "95 ± 19", "unit": "mm^3"}, {"measurement": "CR ratio (ratio of complete regression)", "setting": "[4]; complete remission by Day 21", "value": "3/8"}, {"measurement": "maximum BW loss", "setting": "[4]; next day after the 2nd dosing", "value": 7.7, "unit": "%"}, {"measurement": "MTD Values", "setting": "[5]", "value": 300, "unit": "mg/kg"}, {"measurement": "TGI", "setting": "[6]", "value": 70, "unit": "%"}]}, {"smiles": "CCc1c2c(nc3ccc(O)c(CN(C)C)c13)-c1cc3c(c(=O)n1C2)COC(=O)C3(CC)OC(=O)COc1ccc(C(=O)OC2c3cc4c(cc3C(c3cc(OC)c(OC)c(OC)c3)C3C(=O)OCC23)OCO4)cc1", "note": "(stereo not drawn) [Compound N4]", "values": [{"measurement": "IC50", "setting": "[7]", "value": 0.0129, "unit": "µM"}, {"measurement": "IC50", "setting": "[8]", "value": 0.005, "unit": "µM"}, {"measurement": "IC50", "setting": "[9]", "value": 0.0066, "unit": "µM"}, {"measurement": "MTD Values", "setting": "[5]", "value": 250, "unit": "mg/kg"}]}, {"smiles": "CCc1c2c(nc3ccc(OC(=O)N4CCC(N5CCCCC5)CC4)cc13)-c1cc3c(c(=O)n1C2)COC(=O)[C@]3(O)CC", "note": "[Irinotecan, reference compound]", "values": [{"measurement": "body weight loss", "setting": "[2]; during the treatment period, doses of the study groups", "value": 8, "unit": "%"}]}, {"smiles": "CCC1(OC(=O)COc2ccc(C(=O)OC3c4cc5c(cc4C(c4cc(OC)c(OC)c(OC)c4)C4C(=O)OCC34)OCO5)cc2)C(=O)OCc2c1cc1n(c2=O)Cc2cc3c(CN(C)C)c(O)ccc3nc2-1.Cl", "note": "(stereo not drawn) [N1 HCL Salt]", "values": [{"measurement": "MTD Values", "setting": "[5]", "value": 120, "unit": "mg/kg"}]}, {"smiles": "CC[C@@]1(OC(=O)COc2ccc(C(=O)O[C@H]3c4cc5c(cc4[C@@H](c4cc(OC)c(OC)c(OC)c4)[C@H]4C(=O)OC[C@@H]43)OCO5)cc2)C(=O)OCc2c1cc1n(c2=O)Cc2cc3cc(OC(=O)N4CCC(N5CCCCC5)CC4)ccc3nc2-1", "note": "[N2 (801)]", "values": [{"measurement": "MTD for repeating dosing", "setting": "[3]; 7-day repeating dose, BID slow IV injection", "value": 60, "unit": "mg/kg/day"}, {"measurement": "IC50", "setting": "[7]", "value": 0.462, "unit": "µM"}, {"measurement": "IC50", "setting": "[8]", "value": "~0.52", "unit": "µM"}, {"measurement": "IC50", "setting": "[9]", "value": "> 0.5", "unit": "µM"}, {"measurement": "MTD Values", "setting": "[5]", "value": 300, "unit": "mg/kg"}]}, {"smiles": "CCc1c2c(nc3ccc(OC(=O)N4CCC(N5CCCCC5)CC4)cc13)-c1cc3c(c(=O)n1C2)COC(=O)C3(CC)OC(=O)COc1ccc(C(=O)OC2c3cc4c(cc3C(c3cc(OC)c(OC)c(OC)c3)C3C(=O)OCC23)OCO4)cc1.Cl", "note": "(stereo not drawn) [N3 HCL Salt]", "values": [{"measurement": "MTD Values", "setting": "[5]", "value": 144, "unit": "mg/kg"}]}, {"smiles": "CCc1c2c(nc3ccc(O)c(CN(C)C)c13)-c1cc3c(c(=O)n1C2)COC(=O)C3(CC)OC(=O)COc1ccc(C(=O)OC2c3cc4c(cc3C(c3cc(OC)c(OC)c(OC)c3)C3C(=O)OCC23)OCO4)cc1.Cl", "note": "(stereo not drawn) [N4 HCL Salt]", "values": [{"measurement": "MTD Values", "setting": "[5]", "value": 180, "unit": "mg/kg"}]}]}
